What was measured:
Assay type in all cases: in vivo
Setaria viridis = experiment: Pre-emergence herbicidal action, SETVI; settings: dosage 320 g/ha; for herbicidal activity SETVI: scored visually after 3 weeks vs untreated controls (100% = plants have died)
Method in brief: (§1)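 Herbicidal activity is expressed in percent, scored by eye after a 3-week greenhouse period, with 0% matching untreated plants and 100% meaning death. Compounds, as wettable powders or emulsion concentrates, are applied pre-emergence to the covering soil.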

Veronica persica [1] = experiment: Pre-emergence herbicidal action, VERPE; settings: dosage 320 g/ha; for herbicidal activity VERPE: scored visually after 3 weeks vs untreated controls (100% = plants have died)
Method in brief: as §1

Viola tricolor = experiment: Pre-emergence herbicidal action, VIOTR; settings: dosage 320 g/ha; for herbicidal activity VIOTR: scored visually after 3 weeks vs untreated controls (100% = plants have died)
Method in brief: as §1

Abutilon theophrasti = experiment: Post-emergence herbicidal action, ABUTH; parameters: key: % herbicidal action vs untreated; 100 = plants died, 0 = like control
Method in brief: (§2)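 Foliar application at the one-leaf stage of greenhouse-grown plants in sandy loam; compound applied as WP or EC in 600–800 l/ha water containing 0.2% wetting agent. Scores are visual percentages (0% like control, 100% plants died) taken after roughly 3 weeks.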

Matricaria inodora = experiment: Post-emergence herbicidal action, MATIN; parameters: key: % herbicidal action vs untreated; 100 = plants died, 0 = like control
Method in brief: as §2

Veronica persica [2] = experiment: Post-emergence herbicidal action, VERPE; parameters: key: % herbicidal action vs untreated; 100 = plants died, 0 = like control
Method in brief: as §2

Row | Compound | herbicidal activity SETVI (Setaria viridis) [%] | herbicidal activity VERPE (Veronica persica [1]) [%] | herbicidal activity VIOTR (Viola tricolor) [%] | herbicidal action ABUTH (Abutilon theophrasti; post-emergence, dosage 80 g/ha) [%] | herbicidal action MATIN (Matricaria inodora; post-emergence, dosage 80 g/ha) [%] | herbicidal action VERPE (Veronica persica [2]; post-emergence, dosage 80 g/ha) [%] | herbicidal action ABUTH (Abutilon theophrasti; Dosage 80 g/ha) | herbicidal action MATIN (Matricaria inodora; Dosage 80 g/ha) | herbicidal action VERPE (Veronica persica [2]; Dosage 80 g/ha) | herbicidal action SETVI (Setaria viridis) [%] | herbicidal action VERPE (Veronica persica [1]) [%] | herbicidal action VIOTR (Viola tricolor) [%]
1 | CCSCc1c(C(F)F)ccc(C(=O)Nc2nnnn2CC)c1Cl [Example 2-323] | 100 | 100 | 100 | 100 | 90 | 100 | – | – | – | – | – | –
2 | CCn1nnnc1NC(=O)c1ccc(C(F)F)c(C[S+]([O-])CC)c1Cl (stereo not drawn) [Example 2-324] | 100 | 100 | 100 | 100 | 100 | 100 | – | – | – | – | – | –
3 | CCn1nnnc1NC(=O)c1ccc(C(F)F)c(CS(=O)(=O)CC)c1Cl [Example 2-325] | 100 | 100 | 100 | – | – | – | 100 | 80 | 90 | – | – | –
4 | CCn1nnnc1NC(=O)c1ccc(I)c(C[S+](C)[O-])c1Cl (stereo not drawn) [Example 2-363] | 100 | 100 | 100 | – | – | – | 100 | 100 | 100 | – | – | –
5 | CCn1nnnc1NC(=O)c1ccc(C(F)(F)F)c(C[S+]([O-])CC)c1Br (stereo not drawn) [Example 2-384] | 100 | 100 | 100 | 100 | 100 | 100 | – | – | – | – | – | –
6 | CCn1nnnc1NC(=O)c1ccc(C(F)(F)F)c(CS(=O)(=O)CC)c1Br [Example 2-385] | 100 | 100 | 100 | 100 | 100 | 100 | – | – | – | – | – | –
7 | CCn1nnnc1NC(=O)c1ccc(Cl)c(CSC)c1Cl [Example 2-559] | – | – | – | – | – | – | 90 | 100 | 100 | 90 | 100 | 100
8 | CCCn1nnnc1NC(=O)c1ccc(S(C)(=O)=O)c(CS(C)(=O)=O)c1C [Example 3-39] | – | – | – | – | – | – | 90 | 80 | 100 | 80 | 100 | 100
9 | CCCn1nnnc1NC(=O)c1ccc(C(F)(F)F)c(CSCC)c1C [Example 3-86] | – | – | – | – | – | – | 80 | 90 | 80 | 90 | 100 | 100
10 | CCCn1nnnc1NC(=O)c1ccc(C(F)(F)F)c(CSC)c1SC [Example 3-161] | – | – | – | – | – | – | 100 | 90 | 100 | 90 | 100 | 100
11 | CCCn1nnnc1NC(=O)c1ccc(C(F)(F)F)c(C[S+](C)[O-])c1SC (stereo not drawn) [Example 3-162] | 100 | 100 | 100 | 100 | 100 | 100 | – | – | – | – | – | –
12 | CCCn1nnnc1NC(=O)c1ccc(C(F)(F)F)c(CS(C)(=O)=O)c1SC [Example 3-163] | 100 | 100 | 100 | – | – | – | 100 | 90 | 100 | – | – | –
13 | CCCn1nnnc1NC(=O)c1ccc(C(F)F)c(CSC)c1SC [Example 3-170] | 100 | 100 | 100 | – | – | – | 100 | 100 | 90 | – | – | –
14 | CCCn1nnnc1NC(=O)c1ccc(C(F)F)c(C[S+](C)[O-])c1SC (stereo not drawn) [Example 3-171] | 100 | 100 | 100 | – | – | – | 100 | 90 | 100 | – | – | –
15 | CCCn1nnnc1NC(=O)c1ccc(C(F)F)c(CS(C)(=O)=O)c1SC [Example 3-172] | 100 | 100 | 100 | – | – | – | 100 | 90 | 100 | – | – | –
16 | CCCn1nnnc1NC(=O)c1ccc(C(F)(F)F)c(CS(C)(=O)=O)c1Cl [Example 3-298] | 100 | 100 | 100 | – | – | – | 80 | 100 | 100 | – | – | –
17 | CCCn1nnnc1NC(=O)c1ccc(C(F)(F)F)c(CS(=O)(=O)CC)c1Cl [Example 3-301] | – | – | – | – | – | – | 80 | 100 | 80 | 100 | 100 | 100
18 | C=CCSCc1c(C(F)(F)F)ccc(C(=O)Nc2nnnn2CCC)c1Cl [Example 3-308] | 100 | 100 | 100 | – | – | – | 100 | 100 | 80 | – | – | –
19 | CCCn1nnnc1NC(=O)c1ccc(C(F)(F)F)c(CSCC(F)(F)F)c1Cl [Example 3-311] | – | – | – | – | – | – | 100 | 100 | 80 | 100 | 100 | 100
20 | CCCn1nnnc1NC(=O)c1ccc(C(F)(F)F)c(CSCC2CC2)c1Cl [Example 3-314] | 100 | 100 | 100 | 100 | 100 | 100 | – | – | – | – | – | –
21 | CCCn1nnnc1NC(=O)c1ccc(C(F)F)c(CS(C)(=O)=O)c1Cl [Example 3-322] | 100 | 100 | 100 | – | – | – | 100 | 90 | 80 | – | – | –
22 | CCCn1nnnc1NC(=O)c1ccc(C(F)F)c(CSCC)c1Cl [Example 3-323] | 100 | 100 | 100 | – | – | – | 100 | 90 | 90 | – | – | –
23 | CCCn1nnnc1NC(=O)c1ccc(I)c(C[S+](C)[O-])c1Cl (stereo not drawn) [Example 3-363] | – | – | – | – | – | – | 90 | 100 | 100 | 100 | 90 | 100
24 | CCCn1nnnc1NC(=O)c1ccc(C(F)(F)F)c(C[S+]([O-])CC)c1Br (stereo not drawn) [Example 3-384] | 100 | 100 | 100 | – | – | – | 100 | 100 | 100 | – | – | –
